# Assay results: ChEMBL document CHEMBL4725449, “Brain Penetrable Inhibitors of Ceramide Galactosyltransferase for the Treatment of Lysosomal Storage Disorders” (ACS Med Chem Lett, 2020)
# Legend:
# [1] = AUC (0 to last) in Beagle dog at 3 mg/kg, po; type: ADME, organism-based, Canis lupus familiaris; set-up: time 0 - last, route oral, dose 3 mg/kg; conditions: in vivo
# [2] = Cmax in Beagle dog at 3 mg/kg, po; type: ADME, organism-based, Canis lupus familiaris; set-up: route oral, dose 3 mg/kg; conditions: in vivo
# [3] = Clearance in Sprague-Dawley rat at 1 mg/kg, iv; type: ADME, organism-based; conditions: in vivo
# [4] = Thermodynamic solubility of the compound […] at pH 7.4; type: physicochemical; conditions: read-out: Therm_solubility
# [5] = Intrinsic clearance in human liver microsomes; type: ADME, Microsome; conditions: read-out: CLH
# [6] = target: T1, UDP-glucuronosyltransferase 2B17 (Homo sapiens, UniProt O75795); assay: Inhibition of UGT2B17 (unknown origin); type: ADME
# T1 sequence (O75795 whole entry): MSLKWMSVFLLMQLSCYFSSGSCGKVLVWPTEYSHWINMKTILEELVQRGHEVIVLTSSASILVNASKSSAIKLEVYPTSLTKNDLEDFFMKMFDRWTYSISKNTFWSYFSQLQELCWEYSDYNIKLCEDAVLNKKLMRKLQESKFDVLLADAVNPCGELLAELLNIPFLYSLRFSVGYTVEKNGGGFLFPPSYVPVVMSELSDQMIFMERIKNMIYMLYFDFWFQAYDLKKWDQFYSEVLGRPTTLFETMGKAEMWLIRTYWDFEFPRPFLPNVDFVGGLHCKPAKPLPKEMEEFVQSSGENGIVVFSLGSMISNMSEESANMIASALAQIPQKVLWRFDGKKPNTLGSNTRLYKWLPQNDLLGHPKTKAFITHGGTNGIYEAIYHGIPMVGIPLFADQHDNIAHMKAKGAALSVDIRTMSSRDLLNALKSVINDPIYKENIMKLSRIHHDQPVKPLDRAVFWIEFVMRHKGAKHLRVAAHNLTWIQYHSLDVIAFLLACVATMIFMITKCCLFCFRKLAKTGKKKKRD
# [7] = Apparent permeability of the compound at pH 6.5 to 7.4 by PAMPA; type: ADME
# [8] = In vivo inhibition of GalCer de novo synthesis in adult C57BL/6 mouse kidney assessed as reduction in [13C] galactose incorporation into GalCer at 10 mg/kg, po via gavage treated with compound for 1 hr prior to intraperitoneal injection of [13C] galactose measured after 5 hrs of compound administration relative to control; type: functional
# [9] = Ratio of drug concentration in brain to plasma in C57BL/6 mouse measured at 1 hr; type: ADME, organism-based; conditions: read-out: BPR
# [10] = AUC (0 to last) in Sprague-Dawley rat at 3 mg/kg, po; type: ADME, organism-based; set-up: time 0 - last, route oral, dose 3 mg/kg; conditions: in vivo
# [11] = Half life in Beagle dog at 1 mg/kg, iv; type: ADME, organism-based, Canis lupus familiaris; conditions: in vivo
# [12] = Oral bioavailability in Sprague-Dawley rat at 3 mg/kg; type: ADME, organism-based; conditions: in vivo
# [13] = In vivo inhibition of SFT de novo synthesis in adult C57BL/6 mouse kidney assessed as reduction in [13C] galactose incorporation into SFT at 3 mg/kg, po via gavage treated with compound for 1 hr prior to intraperitoneal injection of [13C] galactose measured after 5 hrs of compound administration relative to control; type: functional
# [14] = Half life in C57BL/6 mouse at 1 mg/kg, iv; type: ADME, organism-based; conditions: in vivo
# Mus musculus [15] = assay: (§1) In vivo inhibition of SFT de novo synthesis in po dosed adult C57BL/6 mouse kidney assessed as reduction in [13C] galactose incorporation into SFT treated with compound for 1 hr prior to intraperitoneal injection of [13C] galactose measured after 5 hrs of compound administration; type: functional
# [16] = as §1; type: functional
# Mus musculus [17] = assay: (§2) In vivo inhibition of GalCer de novo synthesis in po dosed adult C57BL/6 mouse kidney assessed as reduction in [13C] galactose incorporation into GalCer treated with compound for 1 hr prior to intraperitoneal injection of [13C] galactose measured after 5 hrs of compound administration; type: functional
# [18] = as §2; type: functional
# [19] = Oral bioavailability in C57BL/6 mouse at 3 mg/kg; type: ADME, organism-based; conditions: in vivo
# [20] = target: T2, 2-hydroxyacylsphingosine 1-beta-galactosyltransferase (Mus musculus, UniProt Q64676); assay: Inhibition of mouse UGT8 assessed as redcution in GalCer accumulation
# T2 sequence (Q64676 whole entry): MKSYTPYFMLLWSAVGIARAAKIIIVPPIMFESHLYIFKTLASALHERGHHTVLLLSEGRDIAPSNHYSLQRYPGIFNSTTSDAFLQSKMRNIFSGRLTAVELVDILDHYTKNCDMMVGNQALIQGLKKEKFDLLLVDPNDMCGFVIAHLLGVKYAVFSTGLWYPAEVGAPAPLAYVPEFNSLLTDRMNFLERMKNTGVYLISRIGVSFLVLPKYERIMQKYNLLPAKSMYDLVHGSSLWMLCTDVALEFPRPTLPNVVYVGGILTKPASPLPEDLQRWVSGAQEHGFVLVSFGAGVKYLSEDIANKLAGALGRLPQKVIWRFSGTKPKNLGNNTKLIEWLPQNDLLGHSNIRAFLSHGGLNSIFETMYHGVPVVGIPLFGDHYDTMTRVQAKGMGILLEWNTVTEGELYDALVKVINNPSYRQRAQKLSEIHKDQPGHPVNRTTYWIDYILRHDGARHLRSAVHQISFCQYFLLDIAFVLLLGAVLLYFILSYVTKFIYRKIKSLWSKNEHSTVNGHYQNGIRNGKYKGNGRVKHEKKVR
# [21] = Clearance in Beagle dog at 1 mg/kg, iv; type: ADME, organism-based, Canis lupus familiaris; conditions: in vivo
# [22] = In vivo inhibition of GalCer de novo synthesis in adult C57BL/6 mouse kidney assessed as reduction in [13C] galactose incorporation into GalCer at 0.3 mg/kg, po via gavage treated with compound for 1 hr prior to intraperitoneal injection of [13C] galactose measured after 5 hrs of compound administration relative to control; type: functional
# [23] = Distribution coefficient, log D of the compound; type: physicochemical; conditions: octanol/water
# [24] = In vivo inhibition of SFT de novo synthesis in adult C57BL/6 mouse kidney assessed as reduction in [13C] galactose incorporation into SFT at 0.3 mg/kg, po via gavage treated with compound for 1 hr prior to intraperitoneal injection of [13C] galactose measured after 5 hrs of compound administration relative to control; type: functional
# [25] = Volume of distribution at steady state in C57BL/6 mouse at 1 mg/kg, iv; type: ADME, organism-based; conditions: in vivo, read-out: Vdss
# [26] = In vivo inhibition of GalCer de novo synthesis in adult C57BL/6 mouse kidney assessed as reduction in [13C] galactose incorporation into GalCer at 1 mg/kg, po via gavage treated with compound for 1 hr prior to intraperitoneal injection of [13C] galactose measured after 5 hrs of compound administration relative to control; type: functional
# [27] = Clearance in C57BL/6 mouse at 1 mg/kg, iv; type: ADME, organism-based; conditions: in vivo
smiles,measurement,setting,value
CNC(=O)c1csc2c(C(F)(F)F)cc(N3CCC(OC(=O)N[C@@H](C)COC(F)(F)F)CC3)nc12,AUC(0-t),[1],4190 ng·h/mL
same,Cmax,[2],693 ng/mL
same,clearance,[3],6.52 mL/min/kg
same,solubility thermodynamic,[4],< 0.5 µM
same,microsomal CLint,[5],73 µL/min/mg
same,IC50,[6],> 10000 nM
same,Papp,[7],> 80 ×10⁻⁶ cm/s
same,inhibition in vivo at 10 mg/kg,[8],85%
same,Kp at 1 h,[9],0.46
same,AUC(0-t),[10],3060 ng·h/mL
same,half-life,[11],13.6 h
same,bioavailability,[12],40%
same,inhibition in vivo at 3 mg/kg,[13],85%
same,half-life,[14],1.13 h
same,inhibition,Mus musculus [15],Dose-dependent effect
same,ED50,[16],1 mg/kg
same,inhibition,Mus musculus [17],Dose-dependent effect
same,ED50,[18],1 mg/kg
same,bioavailability,[19],34%
same,IC50,[20],0.2 nM
same,clearance,[21],6.32 mL/min/kg
same,inhibition in vivo at 0.3 mg/kg,[22],19%
same,logD,[23],5.09
same,inhibition in vivo at 0.3 mg/kg,[24],29%
same,Vd,[25],1.64 L/kg
same,inhibition in vivo at 1 mg/kg,[26],43%
same,clearance,[27],24.7 mL/min/kg
